Results reported in ChEMBL document CHEMBL3885861, “Open TG-GATES”.

Organism: Rattus norvegicus
Test: Open TG-GATES - Regimen: Daily Repeat
Assay type: toxicity, organism-based, Sprague-Dawley
Set-up: regimen Daily Repeat, gender Male, age 6 weeks
Conditions: in vivo, po, 5 mg/kg, route gavage, dose level Low; for APTT / Bas / Eos / Fbg / Hb / Ht / Lym / MCH / MCHC / MCV / Mono / Neu / PT / Plat / RBC / Ret / WBC: tissue Blood
[1] = 72 h, tissue Kidney, time 3 day
[2] = 72 h, tissue Plasma, time 3 day

Structure (SMILES): CC1=C(CC(=O)O)c2cc(F)ccc2/C1=C\c1ccc([S+](C)[O-])cc1 (stereo unspecified)
- TERMINAL_BW (72 h, time 3 day): 233.7 g
- APTT (72 h, time 3 day): 15.8 s
- Bas (72 h, time 3 day): 0%
- Eos (72 h, time 3 day): 1%
- Fbg (72 h, time 3 day): 306.2 mg/dL
- Hb (72 h, time 3 day): 14.4 g/dL
- Ht (72 h, time 3 day): 42.7%
- Lym (72 h, time 3 day): 72.4%
- MCH (72 h, time 3 day): 21.2 pg
- MCHC (72 h, time 3 day): 33.8%
- MCV (72 h, time 3 day): 62.7 fL
- Mono (72 h, time 3 day): 2.4%
- Neu (72 h, time 3 day): 23.8%
- PT (72 h, time 3 day): 13.7 s
- Plat (72 h, time 3 day): 128.2 x10_4/uL
- RBC (72 h, time 3 day): 681.2 x10_4/ul
- Ret (72 h, time 3 day): 6.8%
- WBC (72 h, time 3 day): 91.3 x10_2/uL
- KIDNEY_L [1]: 1 g
- KIDNEY_R [1]: 1 g
- KIDNEY_TOTAL [1]: 1.9 g
- LIVER (72 h, tissue Liver, time 3 day): 11.2 g
- A/G [2]: 0.9
- ALP [2]: 1483.6 IU/L
- ALT [2]: 40.6 IU/L
- AST [2]: 67.8 IU/L
- BUN [2]: 15.2 mg/dL
- CRE [2]: 0.2 mg/dL
- Ca [2]: 11.1 mg/dL
- Cl [2]: 106.2 meq/L
- DBIL [2]: 0.01 mg/dL
- GLC [2]: 177 mg/dL
- IP [2]: 7.3 mg/dL
- K [2]: 4.2 meq/L
- LDH [2]: 76 IU/L
- Na [2]: 142 meq/L
- PL [2]: 168.2 mg/dL
- RALB [2]: 2.7 g/dL
- TBIL [2]: 0.018 mg/dL
- TC [2]: 88 mg/dL
- TG [2]: 121.8 mg/dL
- TP [2]: 5.6 g/dL
- gamma-GTP [2]: 1.2 IU/L
- TERMINAL_BW ([…], time 7 day): 272.8 g
- TERMINAL_BW ([…], time 14 day): 329.4 g
- TERMINAL_BW ([…], time 28 day): 403.3 g
- APTT ([…], time 7 day): 18.1 s
- Bas ([…], time 7 day): 0%
- Eos ([…], time 7 day): 1%
- Fbg ([…], time 7 day): 300.2 mg/dL
- Hb ([…], time 7 day): 14.2 g/dL
- Ht ([…], time 7 day): 41.6%
- Lym ([…], time 7 day): 79%
- MCH ([…], time 7 day): 21.3 pg
- MCHC ([…], time 7 day): 34.2%
- MCV ([…], time 7 day): 62.3 fL
- Mono ([…], time 7 day): 2%
- Neu ([…], time 7 day): 17.4%
- PT ([…], time 7 day): 13.7 s
- Plat ([…], time 7 day): 134 x10_4/uL
- RBC ([…], time 7 day): 667.8 x10_4/ul
- Ret ([…], time 7 day): 5.8%
- WBC ([…], time 7 day): 93.6 x10_2/uL
- APTT ([…], time 14 day): 17.3 s
- Bas ([…], time 14 day): 0%
- Eos ([…], time 14 day): 1%
- Fbg ([…], time 14 day): 321 mg/dL
- Hb ([…], time 14 day): 15.5 g/dL
- Ht ([…], time 14 day): 45.7%
- Lym ([…], time 14 day): 77.2%
- MCH ([…], time 14 day): 21.1 pg
- MCHC ([…], time 14 day): 34%
- MCV ([…], time 14 day): 62.1 fL
- Mono ([…], time 14 day): 2.2%
- Neu ([…], time 14 day): 18.6%
- PT ([…], time 14 day): 13.8 s
- Plat ([…], time 14 day): 123.9 x10_4/uL
- RBC ([…], time 14 day): 737.2 x10_4/ul
- Ret ([…], time 14 day): 4%
- WBC ([…], time 14 day): 93.7 x10_2/uL
- APTT ([…], time 28 day): 17.8 s
- Bas ([…], time 28 day): 0%
- Eos ([…], time 28 day): 1.4%
- Fbg ([…], time 28 day): 292 mg/dL
- Hb ([…], time 28 day): 15.4 g/dL
- Ht ([…], time 28 day): 46.5%
